From PubChem BioAssay (NCI)
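Dose response: 5 concentrations. Exposure: 48 h. Format: 96-well plates. Endpoint: linear interpolation; highest concentration if not reached. GI50 is the concentration that inhibits growth by half. TGI: concentration producing complete growth inhibition.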

Key:
Assay in all cases: NCI tumour cell line growth inhibition, 48 h
[1] = test system: NCI-H226 lung
[2] = test system: IGROV1 ovarian
[3] = test system: HOP-62 NSCLC
[4] = test system: NCI-H460 lung
[5] = test system: MDA-MB-435
[6] = test system: MDA-MB-231 breast
[7] = test system: RPMI-8226 leukemia
[8] = test system: SK-MEL-5 melanoma
[9] = test system: NCI-H522 lung
[10] = test system: SR leukemia
[11] = test system: COLO 205 colon
[12] = test system: OVCAR-5 ovarian
[13] = test system: MCF7 breast
[14] = test system: HL-60(TB) leukemia
[15] = test system: UO-31 renal
[16] = test system: SF-268 CNS
[17] = test system: NCI-H23 lung
[18] = test system: SN12C renal
[19] = test system: TK-10 renal
[20] = test system: OVCAR-8 ovarian
[21] = test system: MALME-3M melanoma
[22] = test system: RXF 393 renal
[23] = test system: NCI/ADR-RES ovarian
[24] = test system: KM12 colon
[25] = test system: HCT-116 colon
[26] = test system: MOLT-4 leukemia
[27] = test system: SW-620 colon
[28] = test system: HCT-15 colon
[29] = test system: HT29 colon
[30] = test system: PC-3 prostate
[31] = test system: M14 melanoma
[32] = test system: A549 NSCLC
[33] = test system: A498 renal
[34] = test system: EKVX NSCLC
[35] = test system: OVCAR-4 ovarian
[36] = test system: HCC-2998 colon
[37] = test system: LOX IMVI melanoma
[38] = test system: UACC-257 melanoma
[39] = test system: ACHN renal
[40] = test system: SK-MEL-28 melanoma
[41] = test system: UACC-62 melanoma
[42] = test system: 786-0 renal
[43] = test system: MDA-MB-468 breast
[44] = test system: HS 578T breast
[45] = test system: SF-539 CNS
[46] = test system: DU-145 prostate
[47] = test system: U251 CNS
[48] = test system: OVCAR-3 ovarian
[49] = test system: SK-OV-3 ovarian
[50] = test system: SF-295 CNS
[51] = test system: HOP-92 NSCLC
[52] = test system: CAKI-1 renal
[53] = test system: CCRF-CEM leukemia
[54] = test system: SNB-19 CNS
[55] = test system: T-47D breast
[56] = test system: SK-MEL-2 melanoma
[57] = test system: K-562 leukemia
[58] = test system: BT-549 breast

COc1ccc2c3nc4cc(C)c(C)cc4nc3n(CCN(C)C)c2c1
GI50 [1]: 1.58 µM | TGI [1]: 3.81 µM | GI50 [2]: 1.46 µM | TGI [2]: 13.3 µM | GI50 [3]: 2.53 µM | TGI [3]: 13 µM | GI50 [4]: 1.21 µM | TGI [4]: 3.2 µM | GI50 [5]: 2.5 µM | TGI [5]: 11 µM | GI50 [6]: 1.79 µM | TGI [6]: 9.32 µM | GI50 [7]: 1.81 µM | TGI [7]: 4.85 µM | GI50 [8]: 1.5 µM | TGI [8]: 2.98 µM | GI50 [9]: 0.665 µM | TGI [9]: 7.87 µM | GI50 [10]: 1.32 µM | TGI [10]: 5.33 µM | GI50 [11]: 5.93 µM | TGI [11]: 20.8 µM | GI50 [12]: 2.96 µM | TGI [12]: 12.6 µM | GI50 [13]: 1.02 µM | TGI [13]: 2.95 µM | GI50 [14]: 1.18 µM | TGI [14]: 2.95 µM | GI50 [15]: 0.542 µM | TGI [15]: 7.76 µM | GI50 [16]: 3.41 µM | TGI [16]: 16.2 µM | GI50 [17]: 2.51 µM | TGI [17]: 11.5 µM | GI50 [18]: 1.54 µM | TGI [18]: 5.96 µM | GI50 [19]: 6.87 µM | TGI [19]: 19 µM | GI50 [20]: 1.43 µM | TGI [20]: 3.47 µM | GI50 [21]: 1.45 µM | TGI [21]: 3.28 µM | GI50 [22]: 2.38 µM | TGI [22]: 9.71 µM | GI50 [23]: 2.28 µM | TGI [23]: 12 µM | GI50 [24]: 2.31 µM | TGI [24]: 11.4 µM | GI50 [25]: 1.27 µM | TGI [25]: 2.74 µM | GI50 [26]: 2.2 µM | TGI [26]: 7.29 µM | GI50 [27]: 1.27 µM | TGI [27]: 8.47 µM | GI50 [28]: 1.31 µM | TGI [28]: 3.54 µM | GI50 [29]: 3.02 µM | TGI [29]: 12.6 µM | GI50 [30]: 1.58 µM | TGI [30]: 12.9 µM | GI50 [31]: 1.32 µM | TGI [31]: 2.95 µM | GI50 [32]: 1.34 µM | TGI [32]: 3.34 µM | GI50 [33]: 11 µM | TGI [33]: 25.6 µM | GI50 [34]: 3.34 µM | TGI [34]: 15.5 µM | GI50 [35]: 2.82 µM | TGI [35]: 16.2 µM | GI50 [36]: 1.31 µM | TGI [36]: 3.44 µM | GI50 [37]: 1.09 µM | TGI [37]: 2.28 µM | GI50 [38]: 3.97 µM | TGI [38]: 15.1 µM | GI50 [39]: 1.38 µM | TGI [39]: 4.19 µM | GI50 [40]: 3.23 µM | TGI [40]: 11.9 µM | GI50 [41]: 1.61 µM | TGI [41]: 5.2 µM | GI50 [42]: 2.73 µM | TGI [42]: 10.5 µM | GI50 [43]: 1.17 µM | TGI [43]: 3.18 µM | GI50 [44]: 7.19 µM | TGI [44]: 32.5 µM | GI50 [45]: 1.49 µM | TGI [45]: 2.98 µM | GI50 [46]: 2.74 µM | TGI [46]: 12 µM | GI50 [47]: 1.39 µM | TGI [47]: 3.89 µM | GI50 [48]: 2.24 µM | TGI [48]: 5.23 µM | GI50 [49]: 3.58 µM | TGI [49]: 16.2 µM | GI50 [50]: 1.65 µM | TGI [50]: 5.55 µM | GI50 [51]: 0.452 µM | TGI [51]: 6.02 µM | GI50 [52]: 0.981 µM | TGI [52]: 6.65 µM | GI50 [53]: 3.47 µM | TGI [53]: 13.5 µM | GI50 [54]: 3.42 µM | TGI [54]: 16.3 µM | GI50 [55]: 1.78 µM | TGI [55]: 13.6 µM | GI50 [56]: 3.88 µM | TGI [56]: 15.8 µM | GI50 [57]: 1.44 µM | TGI [57]: 4.89 µM | GI50 [58]: 2.94 µM | TGI [58]: 16.4 µM
